# Test results as given in patent US20130237582A1, “PHARMACEUTICAL COMBINATION OF PACLITAXEL AND A CDK INHIBITOR” (Piramal Enterprises Limited, priority 2010, published 2013).
# Columns and labels:
# HIF-1α = HIF-1α reporter gene based assay (U251 HRE); type: cell-based; settings: hypoxia (<1% O2), 0.01-10 μM, 20 h
# Excerpt: (§1) 1) U251 HRE: The genetically engineered cells U251 HRE which stably express a recombinant vector in which the Luciferase reporter gene is under control of three copies of a canonical HRE. 2) U251 pGL3: A control cell line contains the firefly Luciferase reporter gene under control of the constitutively active SV40 promoter and enhancer that helps to exclude compounds that inhibit Luciferase expression in a nonspecific and/or HIF-1-independent fashion. These cells expressed high basal levels of Luciferase in normoxic conditions and slightly lower levels in hypoxic conditions.
# (§2) U251 HRE cells were inoculated into 96 well white flat-bottomed plates at 10000-15000 cells/well in a volume of 180 μL and incubated for 24 h at 37° C., 5% CO2, and ambient O2. Compound A was tested at various concentrations viz. […] After 20 h incubation, the plates were removed and incubated at room temperature, 5% CO2, and ambient O2 for 1.5 h. 40 μL of Bright Glo Luciferase reagent (Promega™, USA) was added and after 3 min, luminescence was measured using a Polar Star Plate Reader (USA) in luminescence mode. Appropriate control cells (U251 pGL3) were treated identically, except that they were treated at 37° C., 5% CO2 and ambient O2. Compound toxicity was assayed using the MTS assay.
# pRbSer780 = experiment: Western blot of cell cycle proteins in MCF-7; type: cell-based, human; settings: 1.5 μM, 3, 6, 9, 12 and 24 h
# Method: (§3) MCF-7 cells were seeded in RPMI 1460 medium with 10% FCS in […] tissue culture flask and incubated for 24 h. These cells were treated with Compound A at 1.5 μM. At various time points viz. 3 h, 6 h, 9 h, 12 h and 24 h the cells were harvested (trypsinised) and lysed using lysis buffer. Protein content was estimated by Bradford method (Anal. Biochem., 1976, 72, 248-254). Lysate was applied to Sodium Dodecyl Sulphate-Polyacrylamide Gel Electrophoresis (SDS-PAGE) followed by Western blotting. Western blotting was done using specific antibodies to various cell cycle proteins viz. cyclin D1, CDK4, Rb and pRbSer780.
# Rb = experiment: Western blot of cell cycle proteins in MCF-7; type: cell-based, human; settings: 1.5 μM, 3, 6, 9, 12 and 24 h
# Method: as §3
# cyclin D1 = experiment: Western blot of cell cycle proteins in MCF-7; type: cell-based, human; settings: 1.5 μM, 3, 6, 9, 12 and 24 h
# Method: as §3
# MDA-MB-361 = experiment: Cytotoxicity assay using propidium iodide (PI); type: cell-based; settings: Homo sapiens
# Method: (§4) The propidium iodide fluorescence assay (PI) was carried out according to the procedure mentioned in Anticancer Drugs, 1995, 6, 522-32. The assay was developed to characterize the in vitro growth of human tumor cell lines as well as to test the cytotoxic activity of the compounds. Propidium iodide (PI) was used as a dye, which penetrates only damaged cellular membranes. Intercalation complexes are formed by PI with double-stranded DNA, which effect an amplification of the fluorescence. After freezing the cells at −20° C. for 24 h, PI had access to total DNA leading to total cell population counts. Background readings were obtained from cell-free wells containing media and propidium iodide. The human breast cancer cell lines (i.e. […] Control wells were treated with vehicle (DMSO). At the end of the incubation periods, the plates were assayed using PI cytotoxicity assay protocol. Percent cytoxicity was calculated at various drug concentrations and from the graph plotted the IC50 values were determined.
# MDA-MB-435-S = experiment: Cytotoxicity assay using propidium iodide (PI); type: cell-based; settings: Homo sapiens
# Method: as §4
# HBL-100 = experiment: Cytotoxicity assay using propidium iodide (PI); type: cell-based; settings: Homo sapiens
# Method: as §4
# BT-549 = experiment: Cytotoxicity assay using propidium iodide (PI); type: cell-based; settings: Homo sapiens, 48 h treatment
# Method: as §4
# ZR-75-1 = experiment: Cytotoxicity assay using propidium iodide (PI); type: cell-based; settings: Homo sapiens
# Method: as §4
# T47-D = experiment: Cytotoxicity assay using propidium iodide (PI); type: cell-based; settings: Homo sapiens, T47D
# Method: as §4
# MCF-7 [1] = experiment: Multicellular tumor spheroid (MCTS, 3D) formation; type: cell-based, human; settings: MCF-7 MCTS
# Method: The assay was carried out according to the method disclosed in Methods in Molecular Medicine, 2007, 140, 141-151.
# The multicellular tumor spheroid (MCTS) model is one of the best-described 3D in vitro tumor model systems, which depicts many of the characteristics of tumor tissue and allows reproducible experiments, offering an excellent in vitro screening system. MCTS were propagated using the hanging drop method. Briefly, the cell monolayer was detached using trypsin-EDTA. Cell count was adjusted and 20 μL hanging droplets containing 1,000 cells/drop, were made in bacterial grade petridishes. These hanging drops were incubated for 24 h at 37° C. in a humidified atmosphere of 5% CO2. The MCTS thus generated were cultured in the presence or absence of varying concentrations (0.3 μM to 30 μM) of Compound A for 72 h.
# MCF-7 [2] = experiment: Cell cycle progression and apoptosis by flow cytometry (sub-G1); type: cell-based, human; settings: 4.5 μM
# Method: Time dependent effect of Compound A on cell cycle progression and apoptosis was evaluated in two breast cancer cell lines. The asynchronous human breast cancer cell lines MCF-7 (Her low, ER+, PR+, BRCA+/−allelic loss) and MDA-MB-231 cells were seeded in […] tissue culture flask at a density of 0.5×10^6 cells per flask in RPMI 1460 with 10% FCS. After 24 h, cells were treated with 4.5 μM of Compound A for 0, 24, 48 and 72 h. Both detached and adherent cells were harvested (trypsinised) at different time points as mentioned in Table 3. After washing in phosphate buffered saline (PBS), cells were fixed in ice-cold 70% ethanol and stored at −20° C. until further analysis.
# Before analysis, cells were washed twice with PBS to remove the fixative and re-suspended in PBS containing 50 μg/mL propidium iodide and 50 μg/mL RNaseA. After incubation at room temperature (20-35° C.) for 20 min, cells were analyzed using flow cytometry. A Becton Dickinson FACS Calibur flow cytometer (BD, USA) was used for these studies. The argon ion laser set at 488 nm was used as an excitation source. Cells with DNA content between 2n and 4n were designated as being in G1, S and G2/M phases of the cell cycle, as defined by the level of red fluorescence. […] The number of cells in each cell cycle compartment was expressed as a percentage of the total number of cells present. The results are shown in Table 3 and graphically presented in FIG. 3A (MCF-7 cell lines) and FIG. 3B (MDA-MB-231 cell lines).
# U251 pGL3 = experiment: Control luciferase reporter cell line (U251 pGL3); type: cell-based; settings: normoxia
# Excerpt: as §1, §2
smiles,measurement,setting,value
"CN1CC[C@@H](c2c(O)cc(O)c3c(=O)cc(-c4ccccc4Cl)oc23)[C@@H]1CO.Cl [Compound A, (+)-trans-2-(2-Chloro-phenyl)-5,7-dihydroxy-8-(2-hydroxymethyl-1-methyl-pyrrolidin-3-yl)-chromen-4-one hydrochloride]",expression of HIF-1α (luciferase reporter),HIF-1α,effectively blocked the expression of HIF-1α in a dose dependent manner
same,pRb expression,pRbSer780,decrease from 6 h onwards and significantly at 12 h
same,total Rb,Rb,no significant change in total Rb except at 24 h
same,Cyclin D1 expression,cyclin D1,decrease from 6 h onwards and significantly at 12 h
same,IC50,MDA-MB-361,750 nM
same,IC50,MDA-MB-435-S,300 nM
same,IC50,HBL-100,510 nM
same,IC50,BT-549,800 nM
same,IC50,ZR-75-1,900 nM
same,IC50,T47-D,500 nM
same,concentration from which spheroid formation was arrested,"MCF-7 [1]; 0.3 μM to 30 μM, 72 h",≥ 3 µM
same,size of MCTS formed,MCF-7 [1]; 1 μM,smaller as compared to control
same,% Apoptosis,MCF-7 [2]; 0 h,1%
same,% Apoptosis,MCF-7 [2]; 24 h,52%
same,% Apoptosis,MCF-7 [2]; 48 h,80%
same,% Apoptosis,MCF-7 [2]; 72 h,88%
same,luciferase expression in control cell line,U251 pGL3,did not inhibit the luciferase expression
